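Assay format: 96-well plates, 48-hour exposure. GI50 is the concentration that inhibits growth by half.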 The source made the active and inactive calls. Rule as the data show it: active = GI50 up to about 1.1 µM and inactive = higher.
Experiments:
Assay in all cases: NCI tumour cell line growth inhibition, 48 h
[1] = test system: SNB-78
[2] = test system: DMS-273
[3] = test system: DMS-114
[4] = test system: HOP-18
[5] = test system: LXFL 529
[6] = test system: XF498
[7] = test system: M19-MEL
[8] = test system: KM-20L2
[9] = test system: RXF 631

Compound: O=C(CN(Cc1ccccc1)Cc1ccccc1)N1CCc2c([nH]c3ccccc23)C1c1cccnc1 (stereo not drawn)
- GI50 [1]: 15.8 µM (inactive)
- GI50 [2]: 4.74 µM (inactive)
- GI50 [3]: 4.35 µM (inactive)
- GI50 [4]: 46.5 µM (inactive)
- GI50 [5]: 6.67 µM (inactive)
- GI50 [6]: 13.9 µM (inactive)
- GI50 [7]: 5.98 µM (inactive)
- GI50 [8]: 6.92 µM (inactive)

Compound: CC(C)Cc1ccc(C(C)/C=C2\CCC(CN3CCCCC3)C2=O)cc1 (stereo not drawn)
- GI50 [1]: 5.74 µM (inactive)
- GI50 [2]: 2.86 µM (inactive)
- GI50 [3]: 2.22 µM (inactive)
- GI50 [4]: 16.6 µM (inactive)
- GI50 [5]: 1.91 µM (inactive)
- GI50 [6]: 6.78 µM (inactive)
- GI50 [7]: 2.54 µM (inactive)
- GI50 [8]: 10.4 µM (inactive)

Compound: CC(Oc1ccc(OCC2CCCCC2)cc1)C(=O)OCC(=O)c1ccc(-c2ccccc2)cc1 (stereo not drawn)
- GI50 [1]: > 100 µM (inactive)
- GI50 [2]: > 100 µM (inactive)
- GI50 [3]: > 100 µM (inactive)
- GI50 [4]: 22.6 µM (inactive)
- GI50 [5]: > 100 µM (inactive)
- GI50 [6]: > 100 µM (inactive)
- GI50 [7]: > 100 µM (inactive)

Compound: COc1cccc(-c2cc(O)c3cc(OC)c(OC)cc3n2)c1
- GI50 [1]: 29.9 µM (inactive)
- GI50 [2]: 36.3 µM (inactive)
- GI50 [5]: 63.1 µM (inactive)
- GI50 [7]: 59.8 µM (inactive)
- GI50 [8]: 26.6 µM (inactive)

Compound: O=C1C(c2ccccc2)=C(c2ccccc2)[C@H](c2ccccc2)[C@]1(Cc1nnn(-c2ccc([N+](=O)[O-])cc2)c1N1CCOCC1)c1ccccc1
- GI50 [1]: > 37.5 µM (inactive)
- GI50 [2]: 24.9 µM (inactive)
- GI50 [3]: > 37.5 µM (inactive)
- GI50 [4]: > 37.5 µM (inactive)
- GI50 [5]: 24.4 µM (inactive)
- GI50 [6]: 8.3 µM (inactive)
- GI50 [7]: > 37.5 µM (inactive)
- GI50 [9]: > 37.5 µM (inactive)
- GI50 [8]: > 37.5 µM (inactive)

Compound: Cc1cc(C(=O)NCCN(C)C)c2nc3ccccc3nc2c1
- GI50 [1]: 12.8 µM (inactive)
- GI50 [2]: 3.87 µM (inactive)
- GI50 [3]: 3.19 µM (inactive)
- GI50 [4]: > 35.1 µM (inactive)
- GI50 [5]: 8.3 µM (inactive)
- GI50 [7]: 3.13 µM (inactive)
- GI50 [8]: 3.1 µM (inactive)

Compound: COc1cc2c(cc1OC)[C@]1(O)C(=O)c3ccc4c(c3O[C@@H]1CO2)C[C@H](C(C)(C)O)O4
- GI50 [1]: > 100 µM (inactive)
- GI50 [2]: > 100 µM (inactive)
- GI50 [3]: 3.61 µM (inactive)
- GI50 [5]: 56.1 µM (inactive)
- GI50 [6]: > 100 µM (inactive)
- GI50 [7]: > 100 µM (inactive)
- GI50 [8]: > 100 µM (inactive)

Compound: N#CCCc1nc2ccc(Br)cc2c(=O)n1CCO
- GI50 [1]: > 100 µM (inactive)
- GI50 [3]: > 100 µM (inactive)
- GI50 [5]: > 100 µM (inactive)
- GI50 [6]: 95.7 µM (inactive)
- GI50 [7]: > 100 µM (inactive)
- GI50 [9]: > 100 µM (inactive)

Compound: CC1=CC(=O)NP(=O)(Oc2ccc(Cl)cc2)N1 (stereo not drawn)
- GI50 [1]: > 100 µM (inactive)
- GI50 [2]: > 100 µM (inactive)
- GI50 [3]: > 100 µM (inactive)
- GI50 [4]: > 100 µM (inactive)
- GI50 [5]: > 100 µM (inactive)
- GI50 [6]: > 100 µM (inactive)
- GI50 [7]: > 100 µM (inactive)
- GI50 [8]: > 100 µM (inactive)

Compound: O=[N+]([O-])c1cccc(C2SCc3nc4ccccc4n32)c1 (stereo not drawn)
- GI50 [1]: > 100 µM (inactive)
- GI50 [2]: 85.7 µM (inactive)
- GI50 [3]: 53.5 µM (inactive)
- GI50 [4]: > 100 µM (inactive)
- GI50 [5]: 55.8 µM (inactive)
- GI50 [6]: > 10 µM (inactive)
- GI50 [7]: > 100 µM (inactive)
- GI50 [8]: > 100 µM (inactive)

Compound: CC(C)C(/C=C/c1ccccc1)=N\NC(=O)N/N=C(/C=C/c1ccccc1)C(C)C
- GI50 [1]: 28.1 µM (inactive)
- GI50 [2]: 19.8 µM (inactive)
- GI50 [3]: 13 µM (inactive)
- GI50 [5]: 23.2 µM (inactive)
- GI50 [6]: 26.4 µM (inactive)
- GI50 [7]: 21 µM (inactive)
- GI50 [8]: 22.5 µM (inactive)

Compound: COCC(=O)CP(=O)(OC)OC
- GI50 [1]: > 100 µM (inactive)
- GI50 [2]: > 100 µM (inactive)
- GI50 [3]: > 100 µM (inactive)
- GI50 [5]: > 100 µM (inactive)
- GI50 [6]: > 100 µM (inactive)
- GI50 [7]: > 100 µM (inactive)

Compound: CC1=C(/C(C)=N/NS(=O)(=O)c2ccc(C)cc2)Sc2ccccc2N1
- GI50 [1]: > 100 µM (inactive)
- GI50 [2]: 78.3 µM (inactive)
- GI50 [3]: 43.4 µM (inactive)
- GI50 [4]: 72.1 µM (inactive)
- GI50 [5]: 79.6 µM (inactive)
- GI50 [7]: 43.7 µM (inactive)
- GI50 [9]: > 100 µM (inactive)
- GI50 [8]: > 100 µM (inactive)

Compound: N/N=C1\C(=O)N(Cc2ccccc2)C(=O)C1C(=O)NCc1ccccc1 (stereo not drawn)
- GI50 [1]: > 100 µM (inactive)
- GI50 [3]: > 100 µM (inactive)
- GI50 [4]: > 100 µM (inactive)
- GI50 [5]: > 100 µM (inactive)
- GI50 [7]: > 100 µM (inactive)
- GI50 [8]: > 100 µM (inactive)

Compound: Cc1cccc(CC(C)(C)C)c1NC(=O)C(=O)C(C(=O)c1ccc2ccccc2c1)C1OC(=O)c2ccccc21 (stereo not drawn)
- GI50 [1]: 11.5 µM (inactive)
- GI50 [3]: 10.4 µM (inactive)
- GI50 [5]: 7.01 µM (inactive)
- GI50 [7]: 14.6 µM (inactive)

Compound: Cc1ccc(S(=O)(=O)N[C@H](C(=O)O)c2ccccc2)cc1
- GI50 [2]: > 100 µM (inactive)
- GI50 [4]: > 100 µM (inactive)
- GI50 [5]: > 100 µM (inactive)
- GI50 [6]: > 100 µM (inactive)
- GI50 [7]: > 100 µM (inactive)
- GI50 [9]: > 100 µM (inactive)
- GI50 [8]: > 100 µM (inactive)

Compound: NC(=O)NC1C(C(N)=O)N(Cc2ccccc2)C(=O)N1Cc1ccccc1 (stereo not drawn)
- GI50 [1]: > 100 µM (inactive)
- GI50 [2]: > 100 µM (inactive)
- GI50 [3]: > 100 µM (inactive)
- GI50 [4]: > 100 µM (inactive)
- GI50 [5]: > 100 µM (inactive)
- GI50 [6]: > 100 µM (inactive)
- GI50 [7]: > 100 µM (inactive)
- GI50 [9]: > 100 µM (inactive)
- GI50 [8]: 46 µM (inactive)

Compound: Cc1cccc(C(=O)O)c1C(=O)c1cccc2ccccc12
- GI50 [1]: > 100 µM (inactive)
- GI50 [2]: > 100 µM (inactive)
- GI50 [3]: > 100 µM (inactive)
- GI50 [4]: > 100 µM (inactive)
- GI50 [5]: > 100 µM (inactive)
- GI50 [7]: > 100 µM (inactive)
- GI50 [8]: 33.5 µM (inactive)

Compound: C=C1Cc2cc(OC)c(OC)c(OC)c2-c2ccc(SC)c(=O)cc21
- GI50 [1]: < 0.01 µM (active)
- GI50 [2]: < 0.01 µM (active)
- GI50 [3]: < 0.01 µM (active)
- GI50 [4]: 4.92 µM (inactive)
- GI50 [5]: < 0.01 µM (active)
- GI50 [6]: < 0.01 µM (active)
- GI50 [7]: < 0.01 µM (active)
- GI50 [8]: < 0.01 µM (active)

Compound: CCCCCCCCCCCC(=O)OCC1OC(n2cc(F)c(=O)[nH]c2=O)C(NC(=O)OCc2ccccc2)C(O)C1O (stereo not drawn)
- GI50 [1]: 28.9 µM (inactive)
- GI50 [2]: 19 µM (inactive)
- GI50 [5]: 18.6 µM (inactive)
- GI50 [7]: 20 µM (inactive)
- GI50 [8]: 21.4 µM (inactive)

Compound: N#CC(NNC(=O)Cc1ccccc1)c1ccc([N+](=O)[O-])cc1 (stereo not drawn)
- GI50 [1]: > 100 µM (inactive)
- GI50 [2]: > 100 µM (inactive)
- GI50 [4]: 82.8 µM (inactive)
- GI50 [5]: > 100 µM (inactive)
- GI50 [7]: > 100 µM (inactive)

Compound: CC1=C(C(=O)NCc2ccccc2)C(c2ccc([N+](=O)[O-])cc2)C(C(=O)NCc2ccccc2)=C(C)N1
- GI50 [1]: 78.7 µM (inactive)
- GI50 [2]: 40.6 µM (inactive)
- GI50 [3]: 30.2 µM (inactive)
- GI50 [4]: > 100 µM (inactive)
- GI50 [5]: 36.7 µM (inactive)
- GI50 [6]: 59 µM (inactive)
- GI50 [7]: 21.3 µM (inactive)
- GI50 [8]: 22 µM (inactive)

Reference: ChEMBL document CHEMBL1201862, “PubChem BioAssay data set” (2004)
